Test results from US20090022684A1, “Methods for hematopoietic stimulation” (priority 2006, published 2009).
Positions of bridges follow the written chain, without caps; N, C: chain ends. Residues, ends and D or L forms follow the SMILES beside them.

Key:
[1] = system: male mice of the C57BL/6 strain; experiment: In vivo mouse study: white blood cell, neutrophil and lymphocyte populations after 14 days of subcutaneous dosing; conditions: for increase in neutrophil population compared to mice in the control group / increase in the white blood cell population compared to mice in the control group: Day 14, vs control group without any treatment; for Lymphocytes / Neutrophils / White Blood Cells: Day 14 blood, s.c. over 14 days, peptide 80 μg/kg once daily, G-CSF 10 μg/kg once daily, EPO 600 IU/kg Days 1, 4, 7, 10, 14, group mean
Description: In vivo Test System. Mouse was selected as the in vivo test system. Sufficient male mice of the C57BL/6 strain was obtained. The animals was obtained as weanlings of about 24-27 days of age on arrival. At randomization, their body weights were within ±20% of the overall mean for each sex. The health care and welfare of the mice were maintained in accordance with the requirement of the Animals (Scientific Procedures) Act 1986 UK. All animals were given clinical inspection for ill health on arrival. They were acclimatized for about three weeks and a veterinary inspection was performed before the start of dosing to ensure their suitability for study. The mice were assigned to treatment groups during the acclimatization period using a total randomization procedure. Group mean body weights were calculated and inspected to ensure there were no unacceptable difference between groups.
Preparation of Administered Formulation of [Leu^27]cyclo(Glu^22-Lys^26)-hPTH-(1-31)-NH2. The bulk freeze-dried peptide [Leu^27]cyclo(Glu^22-Lys^26)-hPTH-(1-31)-NH2 (SEQ ID NO: 4) was dissolved in 0.01 M acetic acid. The concentration of peptide in the solution was 1 μg/μL. The solution was re-aliquotted into dosing vials and kept frozen at approximately −70° C. The vials were then freeze-dried at the temperature lower than −20° C. and stored frozen until required. The freeze-dried aliquots for injection was reconstituted daily. The peptide was dissolved in an appropriate volume of purified water to an approximate concentration of 2-3 mg/mL. The phosphate-buffered saline (pH=7.4) was added to give the final required concentration and the pH value of the final solution is approximately 7.2. The capped vials were mixed thoroughly to ensure peptide was fully dissolved prior to use. Aseptic techniques and glass vials were used throughout dose preparation.
Preparation of Administered Formulation of G-CSF. G-CSF was provided at a concentration of 300 μg/mL in sorbito, sodium acetate and polysorbate 80 in water for injection. The stock solution was diluted accordingly with water for injection to provide the correct dosing concentration.
Preparation of Administered Formulation of EPO. EPO was provided at a concentration of 40,000 IU/mL in polysorbate 80, sodium chloride, sodium dihydrogen phosphate dihydrate, disodium phosphate dihydrate, glycine and water for injection. The stock solution was diluted accordingly with phosphate buffered solution to provide the correct dosing concentration.
In vivo Mouse Study. The peptide [Leu^27]cyclo(Glu^22-Lys^26)-hPTH-(1-31 )-NH2 (SEQ ID NO: 4), G-CSF or EPO were administered subcutaneously over 14 days. The mice were dosed as follows:
The peptide [Leu^27]cyclo(Glu^22-Lys^2 1)-hPTH-(1-3 I)-NH2 was administered to all mice in Groups 2, 3, 4 and 5 once daily for fourteen days at a dose level of 80 μg/kg.
Mice in Group 3, 4 and 5 also received EPO and/or G-CSF. EPO was administered on Days 1, 4, 7, 10 and 14 at a dose of 600 IU/kg. G-CSF was administered once daily for fourteen days at a dose level of 10 μg/kg.
Mice in 6, 7, 8 received EPO and/or G-CSF. EPO was administered on Days 1, 4, 7, 10 and 14 at a dose level of 600 IU/kg. G-CSF was administered once daily for fourteen days at a dose level of 10 μg/kg.
On Day 14, blood samples (0.5 mL EDTA nominal, 0.6 mL lithium heparin nominal) were withdrawn from all mice and were collected into lithium heparin tubes. The tubes were centrifuged and the plasma were separated and analyzed.

healthy older volunteers = experiment: Phase I clinical trial: changes in blood cell populations from baseline to Day 7; format: in vivo, human; conditions: for effect on white blood cell population, especially neutrophil population: healthy adults, compared to placebo
Protocol: A Phase I, single-center, randomized double blind, placebo-controlled, multiple-escalating-dose study in healthy older volunteers was carried out for the peptide [Leu^27]cyclo(Glu^22-Lys^2 1)-hPTH-(1-31)-NH2 (SEQ ID NO: 4). Subjects were healthy males and females (non-reproductive potential), aged 40 to 65 years. […] Subcutaneous injections of placebo or the peptide with a dosage of 10 μg, 20 μg, 40 μg, 60 μg, or 80 μg was administered daily for 7 days. For each dosage level, 2 subjects (I male and I female) received placebo and 6 subjects (3 males and 3 females) received the peptide daily.
The number of white blood cells and the number neutrophils in a subject treated with the peptide increase as the dosage increases until it reaches the maximum at the dosage level of 60 μg. Increase in the number of white blood cells in subject treated with 60 μg of [Leu^27]cyclo(Glu^22-Lys^26)-hPTH-(1-31)-NH2 at Day 7 from the baseline level was about 8 times of that in subjects treated with placebo.

Molecule: CC[C@H](C)[C@H](NC(=O)[C@H](CCC(=O)O)NC(=O)[C@H](CO)NC(=O)[C@@H](NC(=O)[C@@H](N)CO)C(C)C)C(=O)N[C@@H](CCC(N)=O)C(=O)N[C@@H](CC(C)C)C(=O)N[C@@H](CCSC)C(=O)N[C@@H](Cc1c[nH]cn1)C(=O)N[C@@H](CC(N)=O)C(=O)N[C@@H](CC(C)C)C(=O)NCC(=O)N[C@@H](CCCCN)C(=O)N[C@@H](Cc1c[nH]cn1)C(=O)N[C@@H](CC(C)C)C(=O)N[C@@H](CC(N)=O)C(=O)N[C@@H](CO)C(=O)N[C@@H](CCSC)C(=O)N[C@@H](CCC(=O)O)C(=O)N[C@@H](CCCNC(=N)N)C(=O)N[C@H](C(=O)N[C@H]1CCC(=O)NCCCC[C@@H](C(=O)N[C@@H](CC(C)C)C(=O)N[C@@H](CC(C)C)C(=O)N[C@@H](CCC(N)=O)C(=O)N[C@@H](CC(=O)O)C(=O)N[C@H](C(N)=O)C(C)C)NC(=O)[C@H](CCCNC(=N)N)NC(=O)[C@H](CC(C)C)NC(=O)[C@H](Cc2c[nH]c3ccccc23)NC1=O)C(C)C [[Leu^27]cyclo(Glu^22-Lys^26)-hPTH-(1-31)-NH2] (H-SVSEIQLMHNLGKHLNSMERVEWLRKLLQDV-NH2; lactam 22-26; N-terminus assumed)
- increase in lymphocyte population ([1]; Day 14, vs control group): ~20%
- increase in neutrophil population compared to mice in the control group [1]: ~75%
- increase in the white blood cell population compared to mice in the control group [1]: ~26%
- Lymphocytes [1]: 3.7 ± 1.92 1000/cmm
- Neutrophils [1]: 0.7 ± 0.35 1000/cmm
- White Blood Cells [1]: 4.8 ± 2.13 1000/cmm
- Neutrophil, change in mean from baseline to Day 7 (healthy older volunteers; 10 μg s.c. daily for 7 days): 1.22 x e^9/L
- Platelet, change in mean from baseline to Day 7 (healthy older volunteers; 10 μg s.c. daily for 7 days): 19.80 x e^9/L
- Relative Neutrophil Count, change in mean from baseline to Day 7 (healthy older volunteers; 10 μg s.c. daily for 7 days): 4%
- White Blood Cells, change in mean from baseline to Day 7 (healthy older volunteers; 10 μg s.c. daily for 7 days): 1.50 x e^9/L
- Neutrophil, change in mean from baseline to Day 7 (healthy older volunteers; 20 μg s.c. daily for 7 days): 1.22 x e^9/L
- Platelet, change in mean from baseline to Day 7 (healthy older volunteers; 20 μg s.c. daily for 7 days): 16.83 x e^9/L
- Relative Neutrophil Count, change in mean from baseline to Day 7 (healthy older volunteers; 20 μg s.c. daily for 7 days): 3%
- White Blood Cells, change in mean from baseline to Day 7 (healthy older volunteers; 20 μg s.c. daily for 7 days): 1.75 x e^9/L
- Neutrophil, change in mean from baseline to Day 7 (healthy older volunteers; 40 μg s.c. daily for 7 days): 2.88 x e^9/L
- Platelet, change in mean from baseline to Day 7 (healthy older volunteers; 40 μg s.c. daily for 7 days): 28.50 x e^9/L
- Relative Neutrophil Count, change in mean from baseline to Day 7 (healthy older volunteers; 40 μg s.c. daily for 7 days): 12%
- White Blood Cells, change in mean from baseline to Day 7 (healthy older volunteers; 40 μg s.c. daily for 7 days): 3.23 x e^9/L
- Increase in the number of white blood cells at Day 7 from baseline relative to that in subjects treated with placebo (healthy older volunteers; 60 μg s.c. daily for 7 days): about 8 times
- Neutrophil, change in mean from baseline to Day 7 (healthy older volunteers; 60 μg s.c. daily for 7 days): 4.53 x e^9/L
- Platelet, change in mean from baseline to Day 7 (healthy older volunteers; 60 μg s.c. daily for 7 days): 47.83 x e^9/L
- Relative Neutrophil Count, change in mean from baseline to Day 7 (healthy older volunteers; 60 μg s.c. daily for 7 days): 16%
- White Blood Cells, change in mean from baseline to Day 7 (healthy older volunteers; 60 μg s.c. daily for 7 days): 4.65 x e^9/L
- Neutrophil, change in mean from baseline to Day 7 (healthy older volunteers; 80 μg s.c. daily for 7 days): 4.40 x e^9/L
- Platelet, change in mean from baseline to Day 7 (healthy older volunteers; 80 μg s.c. daily for 7 days): 39.50 x e^9/L
- Relative Neutrophil Count, change in mean from baseline to Day 7 (healthy older volunteers; 80 μg s.c. daily for 7 days): 17%
- White Blood Cells, change in mean from baseline to Day 7 (healthy older volunteers; 80 μg s.c. daily for 7 days): 4.40 x e^9/L
- increase in population of neutrophils at Day 7 relative to that for subjects treated with placebo (healthy older volunteers; Day 7, s.c. daily for 7 days): about 50 fold
- platelet count (healthy older volunteers; dosage level of 60 μg and 80 μg, s.c. daily for 7 days): Significant increase
- effect on white blood cell population, especially neutrophil population (healthy older volunteers; s.c. daily for 7 days): significant stimulating effect
- effect on white blood cell population, especially neutrophil population (healthy older volunteers; s.c. daily for 7 days, listed as cyclic peptide of SEQ ID NO: 4): significant increase

Molecule: EPO: erythropoietin, an erythropoiesis regulator
- Lymphocytes [1]: 3.5 ± 1.12 1000/cmm
- Neutrophils [1]: 0.5 ± 0.49 1000/cmm
- White Blood Cells [1]: 4.3 ± 1.56 1000/cmm

B1: G-CSF: granulocyte colony-stimulating factor, a hematopoietic growth factor (protein, UniProt P09919 31-207, looked up)
Granulocyte …: TPLGPASSLPQSFLLKCLEQVRKIQGDGAALQEKLVSECATYKLCHPEELVLLGHSLGIPWAPLSSCPSQALQLAGCLSQLHSGLFLYQGLLQALEGISPELGPTLDTLQLDVADFATTIWQQMEELGMAPALQPTQGAMPAFASAFQRRAGGVLVASHLQSFLEVSYRVLRHLAQP
- increase in neutrophil population compared to mice in the control group [1]: ~175%
- increase in the white blood cell population compared to mice in the control group [1]: ~20%
- Lymphocytes [1]: 3.0 ± 1.30 1000/cmm
- Neutrophils [1]: 1.1 ± 0.25 1000/cmm
- White Blood Cells [1]: 4.5 ± 1.36 1000/cmm
